Results published in article PMC7926980, “The Antiproliferative and Apoptotic Effect of a Novel Synthesized S-Triazine Dipeptide Series, and Toxicity Screening in Zebrafish Embryos” (Molecules, 2021).

Key:
[1] = system: zebrafish embryos; assay: Zebrafish embryo mortality/toxicity; format: in vivo; conditions: maximum concentration tested 1 mM, versus DMSO control
Description: (§1) The zebrafish embryos were obtained by natural pairwise breeding, and were treated essentially as described previously.
(§2) The compounds were dissolved in dimethylsulfoxide (DMSO) in order to prepare a stock concentration of 10 mM. The embryos treated with 0.10% DMSO (v/v) served as the negative controls.
(§3) The fish were kept following the national and international guidelines for the care and use of laboratory animals. The fertilized eggs were obtained by the natural pairwise breeding of adult fish. The approval of the Ethics Committee for the use and care of laboratory animals was not needed, as zebrafish larvae less than 5 days post fertilization were used.
(§4) A stock solution of 50 mM was prepared by dissolving the compounds in dimethyl sulfoxide (DMSO). At least 30 fertilized eggs were sorted and placed in 60-mm sterile glass Petri dishes. A serial dilution of the compounds was prepared by adding the required amount of the compound directly into 5 mL water, and the zebrafish embryos were then exposed to serial dilutions (0.5 to 1000 µM) of each compound overnight. The number of dead and living embryos were counted after the overnight exposure.

[2] = Zebrafish embryo mortality/toxicity; format: in vivo; conditions: wild-type, in vivo; zebrafish embryos, overnight exposure, 0.5 to 1000 µM; mean of three biological replicates ± standard deviation
Description: as §1, §2, §3, §4

[3] = system: HCT-116 cells; assay: MTT cell viability assay, HCT-116; format: cell-based; conditions: Homo sapiens, 72 h treatment
Description: (§5) The antiproliferative activity of the synthesized compounds was evaluated by the 3-(4,5-dimethylthiazol-2-yl)-2,5-diphenyl tetrazolium bromide (MTT) cell viability assay. Two types of breast cancer cell lines—namely MCF-7, which has estrogen and progesterone receptors, and MDA-MB-231, which is triple negative—were used, in addition to a colon cancer cell line (HCT-116).
(§6) The target products 3a–o were evaluated for their antiproliferative activity using the MTT viability assay of the MCF-7, MDA-MB-231 and HCT-116 cell lines (in triplicate) on at least three independent occasions for the determination of the reported mean values.
(§7) The three human tumor cell lines MCF-7, MDA-MB-231 and HCT-116 were cultured in Dulbecco’s Modified Eagle’s Medium (DMEM) with 10% fetal bovine serum, 2 mM L-glutamine and 100 µg/mL penicillin/streptomycin. The cells were maintained at 37 °C in 5% CO2 in a humidified incubator. All of the cells were sub-cultured 3 times/week by trypsinization using TrypLE Express (1×).
(§8) In order to calculate the relative IC50 values, the antiproliferative effect of compounds 3a–o was tested in three cancer cell lines (MCF-7, MDA-MB-231, HCT-116) and normal epithelial embryonic kidney cells (HEK-293) using the MTT viability assay. The cells were seeded in 96-well plates at a density of 10 × 10^3 cells/mL, in a total volume of 200 µL per well. In total, 0.1% DMSO was used as a vehicle control. […] The culture medium was then removed, and the cells were washed with phosphate-buffered saline (PBS), and 100 µL MTT was added (for a final concentration of 5 mg/mL MTT). The cells were incubated for 4 h in darkness at 37 °C. Next, 200 µL DMSO was added to each well, and the cells were maintained at room temperature in darkness for 20 min. The absorbance was detected with a microplate reader at 570 nm. The results were expressed as a percentage of viability relative to the vehicle control (100%). The dose-response curves were plotted, and the IC50 values were obtained using Prism software (GraphPad Software, Inc., La Jolla, CA, USA). All of the experiments were repeated in three independent experiments.

[4] = system: MDA-MB-231 cells; assay: MTT cell viability assay, MDA-MB-231; format: cell-based; conditions: Homo sapiens, 72 h treatment
Description: as §5, §6, §7, §8

[5] = system: MCF-7 cells; assay: MTT cell viability assay, MCF-7; format: cell-based, human; conditions: Homo sapiens, MCF7, 72 h, 72 h treatment
Description: as §5, §6, §7, §8

[6] = system: zebrafish embryos; assay: Zebrafish embryo imaging (morphology, teratogenicity); format: in vivo; conditions: 10 µM, embryos at 48 hpf
From the text: The treated embryos had cardiac edema, craniofacial defects, tail lesions, and a delay in embryonic development. These observations are consistent with the findings in the literature.
A Zeiss Observer D1 inverted microscope using Zeiss ZEN software was used to capture the images of the live zebrafish embryos.
Figure 6 Representative images of the zebrafish embryos 48 hpf (A) control or (B) treated.

## COC(=O)CNC(=O)CNc1nc(Nc2ccc(Cl)cc2)nc(N2CCOCC2)n1 [Compound 3b, Methyl (4-((4-chlorophenyl)amino)-6-morpholino-1,3,5-triazin-2-yl) glycylglycinate]
[1]
  toxicity / mortality in zebrafish embryos: did not show any toxicity
[2]
  LC50: > 1000 µM
[3]
  IC50: > 50 µM
[4]
  IC50: > 50 µM
[5]
  IC50: 6.18 ± 0.46 µM

## COC(=O)CNC(=O)CNc1nc(Nc2ccc(OC)cc2)nc(N2CCOCC2)n1 [Compound 3c, Methyl (4-((4-methoxyphenyl)amino)-6-morpholino-1,3,5-triazin-2-yl) glycylglycinate]
[1]
  toxicity / mortality in zebrafish embryos: did not show any toxicity
[2]
  LC50: > 1000 µM
[3]
  IC50: > 50 µM
[4]
  IC50: > 50 µM
[5]
  IC50: 13.5 ± 1.01 µM

## COC(=O)C(C)NC(=O)CNc1nc(Nc2ccccc2)nc(N2CCOCC2)n1 (stereo not drawn) [Compound 3d, Methyl (4-morpholino-6-(phenylamino)-1,3,5-triazin-2-yl) glycylalaninate]
[1]
  toxicity / mortality in zebrafish embryos: did not show any toxicity
[2]
  LC50: > 1000 µM
[3]
  IC50: > 50 µM
[4]
  IC50: 16.2 ± 0.63 µM
[5]
  IC50: 3.57 ± 0.81 µM

## COC(=O)C(C)NC(=O)CNc1nc(Nc2ccc(Cl)cc2)nc(N2CCOCC2)n1 (stereo not drawn) [Compound 3e, Methyl (4-((4-chlorophenyl)amino)-6-morpholino-1,3,5-triazin-2-yl) glycylalaninate]
[2]
  LC50: 2.37 ± 0.27 µM
[3]
  IC50: > 50 µM
[4]
  IC50: 8.2 ± 1.68 µM
[5]
  IC50: 4.35 ± 2.86 µM

## COC(=O)C(C)NC(=O)CNc1nc(Nc2ccc(OC)cc2)nc(N2CCOCC2)n1 (stereo not drawn) [Compound 3f, Methyl (4-((4-methoxyphenyl)amino)-6-morpholino-1,3,5-triazin-2-yl) glycylalaninate]
[2]
  LC50: 28.4 ± 1.18 µM
[3]
  IC50: > 50 µM
[4]
  IC50: 28.1 ± 1.07 µM
[5]
  IC50: 8.02 ± 0.5 µM

## COC(=O)C(NC(=O)CNc1nc(Nc2ccc(Cl)cc2)nc(N2CCOCC2)n1)C(C)C (stereo not drawn) [Compound 3g, Methyl (4-((4-chlorophenyl)amino)-6-morpholino-1,3,5-triazin-2-yl) glycylvalinate]
[2]
  LC50: 132.1 ± 0.86 µM
[3]
  IC50: 12.2 ± 1.74 µM
[4]
  IC50: 24.1 ± 2.61 µM
[5]
  IC50: 13.2 ± 0.6 µM

## COC(=O)CNC(=O)CNc1nc(Nc2ccccc2)nc(N2CCCCC2)n1 [Compound 3h, Methyl (4-(phenylamino)-6-(piperidin-1-yl)-1,3,5-triazin-2-yl) glycylglycinate]
[2]
  LC50: 10.1 ± 0.43 µM
[3]
  IC50: 15.2 ± 2.04 µM
[4]
  IC50: > 50 µM
[5]
  IC50: 19.64 ± 0.08 µM

## COC(=O)CNC(=O)CNc1nc(Nc2ccc(Cl)cc2)nc(N2CCCCC2)n1 [Compound 3i, Methyl (4-((4-chlorophenyl)amino)-6-(piperidin-1-yl)-1,3,5-triazin-2-yl) glycylglycinate]
[2]
  LC50: 6.22 ± 0.39 µM
[3]
  IC50: 18.5 ± 1.45 µM
[4]
  IC50: 22.3 ± 1.87 µM
[5]
  IC50: 8.37 ± 0.77 µM

## COC(=O)CNC(=O)CNc1nc(Nc2ccc(OC)cc2)nc(N2CCCCC2)n1 [Compound 3j, Methyl (4-((4-methoxyphenyl)amino)-6-(piperidin-1-yl)-1,3,5-triazin-2-yl) glycylglycinate]
[2]
  LC50: 80.15 ± 0.59 µM
[3]
  IC50: 23.4 ± 3.43 µM
[4]
  IC50: > 50 µM
[5]
  IC50: 25.3 ± 2.75 µM

## COC(=O)C(C)NC(=O)CNc1nc(Nc2ccccc2)nc(N2CCCCC2)n1 (stereo not drawn) [Compound 3k, Methyl (4-(phenylamino)-6-(piperidin-1-yl)-1,3,5-triazin-2-yl) glycylalaninate]
[2]
  LC50: 5.98 ± 0.53 µM
[3]
  IC50: > 50 µM
[4]
  IC50: 13.3 ± 1.12 µM
[5]
  IC50: 15.3 ± 2.49 µM

## COC(=O)C(C)NC(=O)CNc1nc(Nc2ccc(Cl)cc2)nc(N2CCCCC2)n1 (stereo not drawn) [Compound 3l, Methyl (4-((4-chlorophenyl)amino)-6-(piperidin-1-yl)-1,3,5-triazin-2-yl) glycylalaninate]
[2]
  LC50: 4.25 ± 0.38 µM
[3]
  IC50: 7.06 ± 0.27 µM
[4]
  IC50: 8.31 ± 0.69 µM
[5]
  IC50: 1.46 ± 0.69 µM

## COC(=O)CNC(=O)CCNc1nc(Nc2ccc(Cl)cc2)nc(N2CCOCC2)n1 [Compound 3m, Methyl (3-((4-((4-chlorophenyl)amino)-6-morpholino-1,3,5-triazin-2-yl)amino)propanoyl) glycinate]
[2]
  LC50: 5.58 ± 0.95 µM
[3]
  IC50: > 50 µM
[4]
  IC50: 26.7 ± 1.32 µM
[5]
  IC50: 19.7 ± 1.48 µM

## COC(=O)C(NC(=O)CCNc1nc(Nc2ccc(Cl)cc2)nc(N2CCOCC2)n1)C(C)C (stereo not drawn) [Compound 3n, Methyl (3-((4-((4-chlorophenyl)amino)-6-morpholino-1,3,5-triazin-2-yl)amino)propanoyl) valinate]
[2]
  LC50: 5.84 ± 1.09 µM
[3]
  IC50: 14.4 ± 1.37 µM
[4]
  IC50: 8.48 ± 1.71 µM
[5]
  IC50: 2.35 ± 1.06 µM

## COC(=O)C(NC(=O)CCNc1nc(Nc2ccc(Cl)cc2)nc(N2CCCCC2)n1)C(C)C (stereo not drawn) [Compound 3o, Methyl (3-((4-((4-chlorophenyl)amino)-6-(piperidin-1-yl)-1,3,5-triazin-2-yl)amino)propanoyl) valinate]
[2]
  LC50: 1.97 ± 0.27 µM
[3]
  IC50: 18.9 ± 2.82 µM
[4]
  IC50: 15.7 ± 2.21 µM
[5]
  IC50: 4.64 ± 1.58 µM

## CC/C(=C(\c1ccccc1)c1ccc(OCCN(C)C)cc1)c1ccccc1 [Tamoxifen, reference compound]
[6]
  teratogenic effect in zebrafish embryos: severe teratogenic effect
